Data taken from patent US10548899B2, “Quinazolinone and benzotriazinone compounds with cholinergic muscarinin M1 receptor positive allosteric modulator activity” (TAKEDA PHARMACEUTICAL COMPANY LIMITED, priority 2015, dated 2020).

Molecular target: T1, human M1 receptor (hCHRM1) (Homo sapiens, UniProt P11229)
T1 construct: expressed in transfected cells; host or cells: CHO-K1
T1 sequence (P11229 1-460): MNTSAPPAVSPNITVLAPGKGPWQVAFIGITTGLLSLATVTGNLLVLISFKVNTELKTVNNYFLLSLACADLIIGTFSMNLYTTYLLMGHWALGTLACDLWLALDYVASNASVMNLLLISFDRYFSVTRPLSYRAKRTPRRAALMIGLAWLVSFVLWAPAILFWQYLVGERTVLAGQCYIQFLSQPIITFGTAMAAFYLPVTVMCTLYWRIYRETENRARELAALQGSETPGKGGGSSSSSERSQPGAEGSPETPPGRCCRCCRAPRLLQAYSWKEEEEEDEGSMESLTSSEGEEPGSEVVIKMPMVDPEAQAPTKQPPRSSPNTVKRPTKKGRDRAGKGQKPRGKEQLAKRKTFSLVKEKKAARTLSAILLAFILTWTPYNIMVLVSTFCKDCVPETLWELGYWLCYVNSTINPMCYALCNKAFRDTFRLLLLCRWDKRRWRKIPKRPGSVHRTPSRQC
Test: Measurement of M1 receptor positive allosteric modulator (M1PAM) activity (calcium fluorescence, Fluo-4, FDSS)
Assay type: cell-based
Details: for activity (%) at 10 μM: 10 μM test compound, acetylcholine EC20 (final 0.8 nM) present, 100% = acetylcholine 1 μM, 0% = DMSO, CHO-K1 hCHRM1 cells; for EC50: inflection point of concentration-dependent curve, CHO-K1 cells stably expressing hCHRM1, in presence of acetylcholine at EC20 concentration (final 0.8 nM), read-out: IP value
Experimental: Measurement of M1 receptor positive allosteric modulator (M1PAM) activity
The activity of a test compound in the presence of acetylcholine at EC20 concentration (final concentration 0.8 nM), which affords an action corresponding to about 20% of the maximum activity, was measured as PAM activity. The method is as follows. CHO-K1 cells stably expressing a human M1 receptor (hCHRM1) were plated on a 384-well black clear bottom plate (BD Falcon) at 5,000 cells/well, and cultured in an incubator at 37° C., 5% CO2 for 1 day. The medium in the cell plate was removed, and assay buffer A containing a calcium indicator (Recording medium (DOJINDO LABORATORIES), 0.1% BSA (Wako Pure Chemical Industries, Ltd.), 2.5 μg/mL Fluo-4 AM (DOJINDO LABORATORIES), 0.08% Pluronic F127 (DOJINDO LABORATORIES) and 1.25 mM probenecid (DOJINDO LABORATORIES) were added at 30 μL/well. The cells were left standing in the incubator at 37° C., 5% CO2 for 30 min, and further left standing at room temperature for 30 min. A test compound prepared by diluting with assay buffer B (HESS (Invitrogen), 20 mM HEPES (Invitrogen), 0.1% BSA) containing 3.2 nM acetylcholine was added at 10 μL/well, and the fluorescence was measured by FDSS/μcell (Hamamatsu Photonics K.K.) for 1 min every for 1 second. With the definition that the amount of change in the fluorescence on addition of acetylcholine (final concentration 1 μM) is 100% and that on addition of DMSO instead of a test compound is 0%, the activity (%) of the test compound was calculated, and the inflection point in the concentration-dependent curve of the test compound was calculated as IP values.

Cc1c(Cc2ccc(-n3cccn3)cc2)cc2c(=O)n([C@H]3COCC[C@@H]3O)nnc2c1F [Example 49, 8-fluoro-3-((3S,4S)-4-hydroxytetrahydro-2H-pyran-3-yl)-7-methyl-6-(4-(1H-pyrazol-1-yl)benzyl)-1,2,3-benzotriazin-4(3H)-one]
activity (%) at 10 μM: 97% | EC50: 18 nM

Cc1cc2ncn([C@H]3CCC[C@@H]3O)c(=O)c2cc1Cc1ccc(-c2cn(C)nn2)cc1 (relative stereo) [Example 21, 3-(trans-2-hydroxycyclopentyl)-7-methyl-6-(4-(1-methyl-1H-1,2,3-triazol-4-yl)benzyl)quinazolin-4(3H)-one]
activity (%) at 10 μM: 97% | EC50: 51 nM

Cc1c(Cc2ccc(-c3ccn(C)n3)nc2)cc2c(=O)n(CC3CCCO3)nnc2c1Cl (stereo not shown) [Example 45, 8-chloro-7-methyl-6-((6-(1-methyl-1H-pyrazol-3-yl)pyridin-3-yl)methyl)-3-(tetrahydrofuran-2-ylmethyl)1,2,3-benzotriazin-4(3H)-one]
activity (%) at 10 μM: 95% | EC50: 25 nM

Cc1c(Cc2ccc(-c3ccn(C)n3)nc2)cc2c(=O)n([C@H]3CCCC[C@@H]3O)cnc2c1C [Example 57, 3-((1S,2S)-2-hydroxycyclohexyl)-7,8-dimethyl-6-((6-(1-methyl-1H-pyrazol-3-yl)pyridin-3-yl)methyl)quinazolin-4(3H)-one]
activity (%) at 10 μM: 98% | EC50: 7.3 nM

Cc1c(Cc2ccc(-n3cccn3)cc2)cc2c(=O)n([C@H]3CCC[C@@H]3O)cnc2c1C (relative stereo) [Example 2, 3-(trans-2-hydroxycyclopentyl)-7,8-dimethyl-6-(4-(1H-pyrazol-1-yl)benzyl)quinazolin-4(3H)-one]
activity (%) at 10 μM: 96% | EC50: 61 nM

Cc1c(Cc2ccc(-c3cn(C)nn3)cc2)cc2c(=O)n([C@H]3CCC[C@@H]3O)cnc2c1C (relative stereo) [Example 11, 3-(trans-2-hydroxycyclopentyl)-7,8-dimethyl-6-(4-(1-methyl-1H-1,2,3-triazol-4-yl)benzyl)quinazolin-4(3H)-one]
activity (%) at 10 μM: 101% | EC50: 15 nM

Cc1c(Cc2ccc(-c3ccn(C)n3)cc2)cc2c(=O)n([C@H]3COCC[C@@H]3O)nnc2c1C [Example 47, 3-((3S,4S)-4-hydroxytetrahydro-2H-pyran-3-yl)-7,8-dimethyl-6-(4-(1-methyl-1H-pyrazol-3-yl)benzyl)-1,2,3-benzotriazin-4(3H)-one]
activity (%) at 10 μM: 95% | EC50: 38 nM

Cc1c(Cc2ccc(-n3cccn3)cc2)cc2c(=O)n([C@H]3COCC[C@@H]3O)cnc2c1C (single isomer, unassigned) [Example 52, 3-(trans-4-hydroxytetrahydro-2H-pyran-3-yl)-7,8-dimethyl-6-(4-(1H-pyrazol-1-yl)benzyl)quinazolin-4(3H)-one]
activity (%) at 10 μM: 98% | EC50: 6 nM

Cc1c(Cc2ccc(-c3cn(C)nn3)cc2)cc2c(=O)n([C@@H]3CCC[C@H]3O)cnc2c1C (single isomer, unassigned) [Example 23, 3-(trans-2-hydroxycyclopentyl)-7,8-dimethyl-6-(4-(1-methyl-1H-1,2,3-triazol-4-yl)benzyl)quinazolin-4(3H)-one]
activity (%) at 10 μM: 88% | EC50: 13 nM

Cc1cc2nnn([C@H]3COCC[C@@H]3O)c(=O)c2cc1Cc1ccc(-c2ccn(C)n2)cc1 [Example 48, 3-((3S,4S)-4-hydroxytetrahydro-2H-pyran-3-yl)-7-methyl-6-(4-(1-methyl-1H-pyrazol-3-yl)benzyl)-1,2,3-benzotriazin-4(3H)-one]
activity (%) at 10 μM: 98% | EC50: 59 nM

Cc1c(Cc2ccc(-c3ccn(C)n3)cc2)cc2c(=O)n([C@H]3COCC[C@@H]3O)nnc2c1C (relative stereo) [Example 46, 3-(trans-4-hydroxytetrahydro-2H-pyran-3-yl)-7,8-dimethyl-6-(4-(1-methyl-1H-pyrazol-3-yl)benzyl)-1,2,3-benzotriazin-4(3H)-one]
activity (%) at 10 μM: 97% | EC50: 32 nM

Cc1c(Cc2ccc(-n3ccnc3)nc2)cc2c(=O)n([C@H]3COCC[C@@H]3O)nnc2c1C (relative stereo) [Example 42, 3-(trans-4-hydroxytetrahydro-2H-pyran-3-yl)-6-((6-(1H-imidazol-1-yl)pyridin-3-yl)methyl)-7,8-dimethyl-1,2,3-benzotriazin-4(3H)-one]
activity (%) at 10 μM: 100% | EC50: 31 nM

Cc1c(Cc2ccc(-c3cnn(C)c3)cc2)cc2c(=O)n([C@H]3CCC[C@@H]3O)cnc2c1C (relative stereo) [Example 17, 3-(trans-2-hydroxycyclopentyl)-7,8-dimethyl-6-(4-(1-methyl-1H-pyrazol-4-yl)benzyl)quinazolin-4(3H)-one]
activity (%) at 10 μM: 90% | EC50: 55 nM

Cc1c(Cc2ccc(-n3cccn3)cc2)cc2c(=O)n([C@H]3CCOC[C@@H]3O)nnc2c1C [Example 56, 3-((3R,4S)-3-hydroxytetrahydro-2H-pyran-4-yl)-7,8-dimethyl-6-(4-(1H-pyrazol-1-yl)benzyl)-1,2,3-benzotriazin-4(3H)-one]
activity (%) at 10 μM: 98% | EC50: 15 nM
